Measurements from US12577242B2, “Pyrrolopyridine and imidazopyridine antiviral compounds” (KATHOLIEKE UNIVERSITEIT LEUVEN, priority 2020, dated 2026).

Key:
[1] = Cytotoxicity in MDBK cells (no BVD virus added); conditions: bovine, MDBK cells (Madin-Darby bovine kidney), no virus added
[2] = tested on: Bovine viral diarrhea (BVD) virus; assay: Anti-BVDV CPE inhibition assay in MDBK cells; conditions: for EC50: Bovine viral diarrhea virus isolates and strains, MDBK, in Bos taurus, 96 h; for SI (selectivity index, ratio of CC50 and EC50): CC50/EC50, MDBK cells, BVD virus

SMILES | CC50 at 4 days [1] [nM] | EC50 [2] [nM] | SI (selectivity index, ratio of CC50 and EC50) [2]
COc1ncccc1-c1cc2cn(Cn3nnc4ccccc43)ccc-2n1 [Compound XXIII, 1-((2-(2-methoxypyridin-3-yl)-5H-pyrrolo[3,2-c]pyridin-5-yl)methyl)-1H-benzotriazole] | 32000 | 82 | 390
Fc1ccccc1-c1cc2cn(Cn3nnc4ccccc43)ccc-2n1 [Compound XVII, 1-{[2-(2-fluorophenyl)-5H-pyrrolo[3,2-c]pyridin-5-yl]methyl}-1H-benzotriazole] | 19000 | 12 ± 6 | 1583
COc1ncccc1-c1cc2cn(Cc3nc4ccc(C)cc4[nH]3)ccc-2n1 [Compound XXXIV, 2-((2-(2-methoxypyridin-3-yl)-5H-pyrrolo[3,2-c]pyridin-5-yl)methyl)-6-methyl-1H-benzoimidazole] | > 50000 | 395 ± 20 | >127
COc1ccccc1-c1nc2ccn(Cn3nnc4ccccc43)cc-2n1 [CPD-20, 1-((2-(2-methoxyphenyl)-5H-imidazo[4,5-c]pyridin-5-yl)methyl)-1H-benzo[d][1,2,3]triazole] | > 50000 | 87 ± 3 | >575
Cc1ccc2oc(Cn3ccc4cc(-c5ccccc5F)nc-4c3)nc2c1 [Compound IX, 2-{[2-(2-fluorophenyl)-6H-pyrrolo[2,3-c]pyridin-6-yl]methyl}-5-methyl-1,3-benzoxazole] | 5000 | 1.2 ± 1.5 | 4167
COc1ncccc1-c1nc2ccn(Cc3cc(-c4cc(F)ccc4F)no3)cc-2n1 [CPD-17, 3-(2,5-difluorophenyl)-5-((2-(2-methoxypyridin-3-yl)-5H-imidazo[4,5-c]pyridin-5-yl)methyl)isoxazole] | 100000 | 72 ± 2 | 1389
COc1ccccc1-c1cc2cn(Cn3nnc4ccccc43)ccc-2n1 [Compound XX, 1-{[2-(2-methoxyphenyl)-5H-pyrrolo[3,2-c]pyridin-5-yl]methyl}-1H-benzotriazole] | 39000 | 82 | 476
Fc1ccc(F)c(-c2cc(Cn3ccc4nc(-c5ccccc5F)nc-4c3)on2)c1 [CPD-35, 3-(2,5-difluorophenyl)-5-((2-(2-fluorophenyl)-5H-imidazo[4,5-c]pyridin-5-yl)methyl)isoxazole] | > 50000 | 75 ± 24 | >667
Cc1ccc2nc(Cn3ccc4nc(-c5cc(OCCO)ccc5F)cc-4c3)sc2c1 [Compound XXIX, 2-(4-fluoro-3-(5-((6-methyl-1,3-benzothiazol-2-yl)methyl)-5H-pyrrolo[3,2-c]pyridin-2-yl)phenoxy)ethan-1-ol] | 16000 | 37 ± 30 | 432
Cc1ccc2nc(Cn3ccc4nc(-c5ccccc5F)cc-4c3)sc2c1 [Compound XXVIII, 2-{[2-(2-fluorophenyl)-5H-pyrrolo[3,2-c]pyridin-5-yl]methyl}-6-methyl-1,3-benzothiazole] | 3000 | 16 | 188
Fc1ccccc1-c1nc2ccn(Cc3ccc(Cl)s3)cc-2n1 [CPD-30, 5-((5-chlorothiophen-2-yl)methyl)-2-(2-fluorophenyl)-5H-imidazo[4,5-c]pyridine] | > 50000 | 129 ± 61 | >388
Cc1c(-c2nc3ccn(Cc4nc5ccc(Cl)cc5s4)cc-3n2)cnn1C [CPD-5, 6-chloro-2-((2-(1,5-dimethyl-1H-pyrazol-4-yl)-5H-imidazo[4,5-c]pyridin-5-yl)methyl)benzo[d]thiazole] | > 50000 | 27 ± 27 | >1852
Cc1ccc2nc(Cn3ccc4nc(-c5ccccc5CO)cc-4c3)sc2c1 [Compound XXX, (2-{5-[(6-methyl-1,3-benzothiazol-2-yl)methyl]-5H-pyrrolo[3,2-c]pyridin-2-yl}phenyl)methanol] | 20000 | 19 ± 7 | 1053
COc1ncccc1-c1cc2cn(Cc3nc4ccc(C)cc4s3)ccc-2n1 [Compound XXXI, 2-{[2-(2-methoxypyridin-3-yl)-5H-pyrrolo[3,2-c]pyridin-5-yl]methyl}-6-methyl-1,3-benzothiazole] | 10000 | 6 ± 6 | 1667
Fc1ccc(-c2cc(Cn3ccc4nc(-c5ccccc5F)nc-4c3)on2)c(F)c1 [CPD-34, 3-(2,4-difluorophenyl)-5-((2-(2-fluorophenyl)-5H-imidazo[4,5-c]pyridin-5-yl)methyl)isoxazole] | > 50000 | 92 ± 49 | >543
OCCOc1ccc(F)c(-c2cc3ccn(Cn4nnc5ccccc54)cc-3n2)c1 [Compound III, 2-(3-{6-[(1H-benzotriazol-1-yl)methyl]-6H-pyrrolo[2,3-c]pyridin-2-yl}-4-fluorophenoxy)ethan-1-ol] | 22000 | 19 ± 7 | 1158

SMILES | CC50 at 4 days [1] [nM] | EC50 [2] [nM] | SI (selectivity index, ratio of CC50 and EC50) [2]
COc1ccccc1-c1nc2ccn(Cc3cc(-c4cc(F)ccc4F)no3)cc-2n1 [CPD-19, 3-(2,5-difluorophenyl)-5-((2-(2-methoxyphenyl)-5H-imidazo[4,5-c]pyridin-5-yl)methyl)isoxazole] | 19000 | 4 ± 1 | 4750
Fc1ccccc1-c1nc2ccn(Cc3ncc(-c4ccccc4)s3)cc-2n1 [CPD-28, 2-((2-(2-fluorophenyl)-5H-imidazo[4,5-c]pyridin-5-yl)methyl)-5-phenylthiazole] | > 50000 | 82 | >610
Cc1ccc2nc(Cn3ccc4nc(-c5ccccc5CO)cc-4c3)[nH]c2c1 [XXXIII, [2-[5-[(6-methyl-1H-benzimidazol-2-yl)methyl]pyrrolo[3,2-c]pyridin-2-yl]phenyl]methanol] | > 50000 | 1900 ± 102 | >26
COc1ccccc1-c1cc2ccn(Cn3nnc4ccccc43)cc-2n1 [Compound IV, 1-{[2-(2-methoxyphenyl)-6H-pyrrolo[2,3-c]pyridin-6-yl]methyl}-1H-benzotriazole] | 22000 | 8 ± 5 | 2750
Cc1ccc2sc(Cn3ccc4nc(-c5ccccc5F)nc-4c3)nc2c1 [CPD-23, 2-((2-(2-fluorophenyl)-5H-imidazo[4,5-c]pyridin-5-yl)methyl)-5-methylbenzo[d]thiazole] | > 50000 | 84 ± 29 | >595
OCc1ccccc1-c1cc2cn(Cn3nnc4ccccc43)ccc-2n1 [Compound XXI, (2-(5-((1H-Benzotriazol-1-yl)methyl)-5H-pyrrolo[3,2-c]pyridin-2-yl)phenyl)methanol] | > 50000 | 387 ± 22 | >129
Cc1ccc(-c2nc3ccn(Cc4cc(-c5cc(F)ccc5F)no4)cc-3n2)s1 [CPD-47, 3-(2,5-difluorophenyl)-5-((2-(5-methylthiophen-2-yl)-5H-imidazo[4,5-c]pyridin-5-yl)methyl)isoxazole] | 24000 | 341 ± 25 | 70
COc1ncccc1-c1nc2ccn(Cc3nc4cc(C)ccc4s3)cc-2n1 [CPD-15, 2-((2-(2-methoxypyridin-3-yl)-5H-imidazo[4,5-c]pyridin-5-yl)methyl)-5-methylbenzo[d]thiazole] | > 50000 | 86 ± 4 | >581
Cc1ccc2sc(Cn3ccc4nc(-c5cn(C)nc5C)nc-4c3)nc2c1 [CPD-11, 2-((2-(1,3-dimethyl-1H-pyrazol-4-yl)-5H-imidazo[4,5-c]pyridin-5-yl)methyl)-5-methylbenzo[d]thiazole] | > 50000 | 300 ± 100 | >167
Cc1ccc2nc(Cn3ccc4nc(-c5ccccc5F)nc-4c3)oc2c1 [CPD-32, 2-((2-(2-fluorophenyl)-5H-imidazo[4,5-c]pyridin-5-yl)methyl)-6-methylbenzo[d]oxazole] | > 50000 | 377 ± 16 | >133
Fc1ccc(OC(F)(F)F)cc1-c1cc2cn(Cn3nnc4ccccc43)ccc-2n1 [Compound XVIII, 1-({2-[2-fluoro-5-(trifluoromethoxy)phenyl]-5H-pyrrolo[3,2-c]pyridin-5-yl}methyl)-1H-benzotriazole] | 12000 | 76 ± 19 | 158
Cc1ccc2oc(Cn3ccc4nc(-c5cn(C)nc5C)nc-4c3)nc2c1 [CPD-12, 2-((2-(1,3-dimethyl-1H-pyrazol-4-yl)-5H-imidazo[4,5-c]pyridin-5-yl)methyl)-5-methylbenzo[d]oxazole] | > 50000 | 256 ± 111 | >195
Cc1ccc2nc(Cn3ccc4cc(-c5cnn(C)c5C)nc-4c3)sc2c1 [Compound XV, 2-{[2-(1,5-dimethyl-1H-pyrazol-4-yl)-6H-pyrrolo[2,3-c]pyridin-6-yl]methyl}-6-methyl-1,3-benzothiazole] | 17000 | 16 ± 1 | 1063
Cc1c(-c2nc3ccn(Cn4nnc5ccccc54)cc-3n2)cnn1C [CPD-9, 1-((2-(1,5-dimethyl-1H-pyrazol-4-yl)-5H-imidazo[4,5-c]pyridin-5-yl)methyl)-1H-benzo[d][1,2,3]triazole] | 22000 | 346 ± 86 | 64
Cc1ccc2nc(Cn3ccc4nc(-c5cc(OCCO)ccc5F)nc-4c3)sc2c1 [CPD-41, 2-(4-fluoro-3-(5-((6-methylbenzo[d]thiazol-2-yl)methyl)-5H-imidazo[4,5-c]pyridin-2-yl)phenoxy)ethan-1-ol] | > 50000 | 223 ± 143 | >224
